In assay [1] the target is T1, Ca^2+-activated Cl^- channel (CaCC) (Xenopus laevis, UniProt B5SVV6). To be noted: endogenous CaCCs in Xenopus laevis oocytes, TEVC; read-out: IC50 * (IC50 previously studied); cited from earlier work.
Assay [2] deals with T1, Ca^2+-activated Cl^- channel (CaCC). The class given is cell-based. To be noted: block of Cl^- current induced by 5 mM external Ca^2+, ionomycin then thapsigargin treated oocytes, chelerythrine in intracellular solution, holding potential -60 mV.
Protocol: To exclude the effect of PKC in CaCC current, PKC inhibitor chelerythrine was added to the intracellular solution. […] Additional variability in peak amplitude can come from the Ca^2+ induced Ca^2+ release from intracellular stores. To eliminate the contribution of Ca^2+ release from intracellular stores, Ca^2+ ATPase inhibitor, thapsigargin was treated on ionomycin pretreated oocytes. […] Therefore, a reliable protocol for drug screening of CaCCs in Xenopus oocytes was established with treatment of 1 μM thapsigargin for 90 min to ionomycin treated oocytes followed by recording with microelectrodes filled with intracellular solution containing 1 μM chelerythrine.
Using the optimized drug screening protocol, the effect of known blockers of CaCC was tested.
The animals were anaesthetized by cooling with ice [30]. Ovarian follicles were surgically removed, treated with 2 mg/ml collagenase type IA at room temperature for 90 min in Ca^2+ free Barth's solution containing 89 mM NaCl, 1.0 mM KCl, 2.4 mM NaHCO3, 0.82 mM MgSO4 and 10 mM HEPES (pH 7.4). […]

Where two headings read alike, the source gives them in different places.

T1 sequence (B5SVV6 entry or part of it): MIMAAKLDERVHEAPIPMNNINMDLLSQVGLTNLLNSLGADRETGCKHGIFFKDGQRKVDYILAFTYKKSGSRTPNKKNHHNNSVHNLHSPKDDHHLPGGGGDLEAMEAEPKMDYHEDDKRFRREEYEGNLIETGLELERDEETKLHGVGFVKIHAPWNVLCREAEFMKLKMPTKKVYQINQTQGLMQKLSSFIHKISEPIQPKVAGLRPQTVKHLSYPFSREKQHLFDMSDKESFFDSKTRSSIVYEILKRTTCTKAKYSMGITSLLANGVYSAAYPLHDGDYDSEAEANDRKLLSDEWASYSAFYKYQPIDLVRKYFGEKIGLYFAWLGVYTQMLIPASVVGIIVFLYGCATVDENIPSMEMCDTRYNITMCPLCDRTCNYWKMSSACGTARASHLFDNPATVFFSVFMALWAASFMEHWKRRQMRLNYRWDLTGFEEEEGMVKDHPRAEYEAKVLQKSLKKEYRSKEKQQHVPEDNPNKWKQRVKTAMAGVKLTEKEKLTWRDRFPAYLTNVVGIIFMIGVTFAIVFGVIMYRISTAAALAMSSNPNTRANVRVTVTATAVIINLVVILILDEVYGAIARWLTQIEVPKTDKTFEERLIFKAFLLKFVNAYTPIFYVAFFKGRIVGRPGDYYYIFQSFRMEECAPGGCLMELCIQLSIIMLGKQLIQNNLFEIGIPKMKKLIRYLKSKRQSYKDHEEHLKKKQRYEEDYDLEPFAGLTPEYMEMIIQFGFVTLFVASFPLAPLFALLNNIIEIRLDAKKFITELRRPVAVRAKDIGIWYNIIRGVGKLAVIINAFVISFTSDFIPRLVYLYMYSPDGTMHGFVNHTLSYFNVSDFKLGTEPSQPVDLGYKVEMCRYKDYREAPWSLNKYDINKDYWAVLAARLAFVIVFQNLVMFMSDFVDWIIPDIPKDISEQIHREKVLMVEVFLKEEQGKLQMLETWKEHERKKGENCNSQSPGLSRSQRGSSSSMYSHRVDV

For orientation: IC50 means the concentration that gives 50% inhibition. For the molecule `O=C(O)c1ccccc1Nc1ccccc1` [DPC, diphenylamine-2-carboxylate], the IC50 in assay [1] is 111 µM. Take `O=C(O)c1ccccc1Nc1ccccc1[N+](=O)[O-]` [N-(2-Nitrophenyl)-anthranilic acid]: the IC50 result in assay [2] is reported as “low potency”. As for `O=C(O)c1ccccc1Nc1ccc(C(F)(F)F)cc1` [N-(4-trifluoromethylphenyl)anthranilic acid], the IC50 in assay [2] (read-out: IC50) came out at 6 µM.

Values taken from publication PMC2585076, “Development of selective blockers for Ca^2+-activated Cl^- channel using Xenopus laevis oocytes with an improved drug screening strategy” (Molecular Brain, 2008).
